In PubChem BioAssay (NCI):
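Step 1: Grow cells in 96-well plates. Step 2: Expose to compound for 48 hours at 5 concentrations. Step 3: Interpolate endpoints linearly; if unreached, use highest concentration. At the GI50, growth is halved. TGI is the concentration that stops growth completely.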

Key:
Assay in all cases: DTP human tumour cell line panel, 48 h
[1] = tested on: CAKI-1 renal
[2] = tested on: COLO 205 colon
[3] = tested on: HCT-15 colon
[4] = tested on: LOX IMVI melanoma
[5] = tested on: OVCAR-3 ovarian
[6] = tested on: RPMI-8226 leukemia
[7] = tested on: SF-295 CNS
[8] = tested on: MCF7 breast
[9] = tested on: MDA-MB-231 breast
[10] = tested on: NCI/ADR-RES ovarian

Compound	TGI [1] [µM]	TGI [2] [µM]	TGI [3] [µM]	TGI [4] [µM]	TGI [5] [µM]	TGI [6] [µM]	TGI [7] [µM]	TGI [8] [µM]	TGI [9] [µM]	TGI [10] [µM]	GI50 [1] [µM]	GI50 [2] [µM]	GI50 [3] [µM]	GI50 [4] [µM]	GI50 [5] [µM]	GI50 [6] [µM]	GI50 [7] [µM]	GI50 [8] [µM]	GI50 [9] [µM]	GI50 [10] [µM]
C/C=C/C(=O)Oc1cccc2cccnc12	93.8	35.9	33.4	> 84.6	> 73.6	> 96.1	> 100	–	–	–	–	–	–	–	–	–	–	–	–	–
COc1cc(OCc2ccccc2)c2c(CCC(=O)O)cc(=O)oc2c1 (tested in a mixture with another compound)	> 100	> 100	> 100	> 100	> 100	> 100	–	61.7	> 100	> 100	–	–	–	–	–	–	–	–	–	–
C[C@]12CC[C@H](O[C@@H]3O[C@H](CO[C@@H]4O[C@H](CO)[C@@H](O)[C@H](O)[C@H]4O)[C@@H](O)[C@H](O)[C@H]3O)C[C@@H]1CC[C@@H]1[C@@H]2CC[C@]2(C)[C@@H](C3=CC(=O)OC3)CC[C@]12O	> 58.9	> 76.9	42.9	65.6	> 74.1	> 87.9	> 31.6	–	> 100	39.3	–	–	–	–	–	–	–	–	–	–
CC(=O)[CH-]C(=O)c1ccccc1.CC(=O)[CH-]C(=O)c1ccccc1.Cl.[O-]c1ccnc2ccccc12.[O-]c1ccnc2ccccc12.[Ti+4]	> 100	> 100	> 100	> 100	> 100	> 100	> 100	–	–	–	48.7	> 100	> 100	> 100	> 100	> 100	> 100	–	–	–
O=C(O)c1ccc2c(c1)C(=O)N(c1ccc(S(=O)(=O)c3ccc(N4C(=O)c5ccc(C(=O)O)cc5C4=O)cc3)cc1)C2=O	> 100	> 100	> 100	> 100	> 100	> 100	> 100	–	–	–	–	–	–	–	–	–	–	–	–	–
COC(=O)C1=CC2C(=O)OC1C1C(=O)NC(=O)C21 (stereo not given)	> 100	> 100	–	> 100	> 100	> 100	> 100	–	–	–	–	–	–	–	–	–	–	–	–	–
CCOC(=O)C1=C(C)NC(=O)NC1c1ccc(OC)cc1OC (stereo not given)	> 100	> 100	> 100	> 100	> 100	> 100	> 100	–	–	–	–	–	–	–	–	–	–	–	–	–
CC(=Nc1ccc(N(C)C)cc1)c1ccccc1	34	34.9	37.9	–	32.2	–	> 100	46.9	35.4	68.4	–	–	–	–	–	–	–	–	–	–
COc1cc(-c2nn(-c3ccc(NC(=O)Nc4cc(C(F)(F)F)cc(C(F)(F)F)c4)cc3)cc2-c2ccncc2)ccc1Cl	6.73	3.32	4.01	–	3.88	–	2.63	8.98	3.34	7.38	1.97	1.6	1.58	–	1.46	–	1.1	2.84	1.64	2
CC1(C)C(=O)OC(n2cc(F)c(=O)[nH]c2=O)C1=O (stereo not given)	–	> 100	> 100	> 100	> 100	> 100	> 100	–	–	–	–	–	–	–	–	–	–	–	–	–
Oc1ccc2c(=S)cc(-c3ccc(Br)cc3)oc2c1O	15.5	24.5	12.1	3.87	–	18.3	29.8	–	8.4	6.05	2.65	10.7	0.853	1.18	–	1.32	4.01	–	1.81	1.43
